The results in this text go back to patent publication US10323043B2, “Derivatives of macrocyclic N-aryl-tricyclopyrimidine-2-amine polyethers as inhibitors of FTL3 and JAK” (PIERRE FABRE MEDICAMENT, priority 2014, dated 2019).

As a reminder, the EC50 is the concentration needed to bring the measured effect to its halfway point. In general, IC50 refers to the point on the concentration scale where inhibition reaches its midpoint.

The subject of assay [1] is MOLM-13 cell line. Nature of the assay: Antiproliferative activity (ATPLite cell viability), MOLM-13. Particulars: Homo sapiens, MOLM-13 (acute myeloid leukemia, FLT3-ITD), 72 h incubation, read-out: Cytotoxicity (EC50) on MOLM13 cell line. Type of assay: cell-based. The procedure: (§1) The characteristics of the cell lines used are as follows (Table 2):
(§2) MV4-11 and MOLM-13 cell lines are cultured in the culture medium specified in Table 2 above and according to the supplier's recommendations. The tests are carried out in 96-well plates. The cells are divided in two at D0. At D1, they are seeded and treated with the compounds at various concentrations and incubated for 72 h at 37° C. and 5% CO2. The dilution of the compounds from stock solutions in DMSO (Sigma, #D8418) was made semi-logarithmically for a final concentration in the culture medium of 0.1%. At day 4, cell viability is evaluated by assaying the ATP released by the living cells using the ATPLite® kit (Perkin Elmer, #6016947). The EC50 values (concentration of the compound necessary to obtain 50% of the maximum effect) are calculated using curve-fitting software.

Assay [2] concerns MV4-11 cell line. Nature of the assay: Antiproliferative activity (ATPLite cell viability), MV4-11. Format: cell-based. Particulars: Homo sapiens, MV4-11 (acute myeloid leukemia, FLT3-ITD), 72 h incubation, read-out: Cytotoxicity (EC50) on MV411 cell line. The procedure:
as §1, §2

In assay [3] the target is T1, JAK3 (Homo sapiens, UniProt P52333).
T1 construct: purchased Life Technologies PV3855
T1 sequence (P52333 1-1124): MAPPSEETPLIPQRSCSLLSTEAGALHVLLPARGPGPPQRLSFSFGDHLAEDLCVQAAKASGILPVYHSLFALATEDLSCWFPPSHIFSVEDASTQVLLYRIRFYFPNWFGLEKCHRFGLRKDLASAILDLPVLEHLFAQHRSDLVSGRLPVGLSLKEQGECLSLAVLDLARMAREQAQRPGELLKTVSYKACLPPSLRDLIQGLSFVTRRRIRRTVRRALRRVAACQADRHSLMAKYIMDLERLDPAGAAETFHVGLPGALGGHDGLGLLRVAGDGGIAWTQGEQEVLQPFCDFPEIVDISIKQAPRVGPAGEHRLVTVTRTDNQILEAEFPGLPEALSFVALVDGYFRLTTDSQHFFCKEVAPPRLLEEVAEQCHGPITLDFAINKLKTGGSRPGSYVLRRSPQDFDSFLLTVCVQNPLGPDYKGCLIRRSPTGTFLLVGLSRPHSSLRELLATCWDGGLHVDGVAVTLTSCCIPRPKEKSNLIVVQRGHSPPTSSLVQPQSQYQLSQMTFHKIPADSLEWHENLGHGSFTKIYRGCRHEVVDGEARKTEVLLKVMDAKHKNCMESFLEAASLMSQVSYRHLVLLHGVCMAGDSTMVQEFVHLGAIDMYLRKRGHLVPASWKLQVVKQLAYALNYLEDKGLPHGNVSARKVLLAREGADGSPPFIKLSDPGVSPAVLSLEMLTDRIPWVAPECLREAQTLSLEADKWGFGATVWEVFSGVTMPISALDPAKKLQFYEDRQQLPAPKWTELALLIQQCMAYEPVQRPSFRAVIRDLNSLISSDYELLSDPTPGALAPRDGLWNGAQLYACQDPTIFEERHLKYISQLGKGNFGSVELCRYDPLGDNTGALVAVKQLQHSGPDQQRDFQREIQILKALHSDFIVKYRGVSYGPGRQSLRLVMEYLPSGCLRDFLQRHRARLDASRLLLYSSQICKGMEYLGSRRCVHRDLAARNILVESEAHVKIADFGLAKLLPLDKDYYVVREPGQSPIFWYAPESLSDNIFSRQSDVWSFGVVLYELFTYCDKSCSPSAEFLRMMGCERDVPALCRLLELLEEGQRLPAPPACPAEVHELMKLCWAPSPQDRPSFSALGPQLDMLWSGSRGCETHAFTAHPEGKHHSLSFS
As to the kind of experiment: LanthaScreen TR-FRET binding test, JAK3. Particulars: recombinant JAK3 15 nM, kinase tracer 236 3 nM, 25° C., 1 hour; read-out: Inhibition (IC50) of JAK3 enzyme. The procedure: FLT3 (#PV3182), JAK2 (#PV4210) and JAK3 (#PV3855) recombinant enzymes were purchased from Life Technologies. FLT3-ITD (#0778-0000-1) and FLT3^D835Y (#14-610) proteins were purchased from ProQinase and Merck Millipore, respectively. All the tests were carried out in 384-well plates. The principle of these binding tests is based on the LanthaScreen® TR-FRET methodology from Life Technologies.
The reaction mixture (15 μL total volume) contains the following compounds: 15 nM JAK2 or JAK3, 150 nM kinase tracer 236 (Life Technologies, #PV5592) for JAK2 or 3 nM for JAK3 and 6 nM LanthaScreen® anti-GST antibody coupled to a europium chelate (Life Technologies, #PV5594) for both enzymes.
The compounds are evaluated at 8 different concentrations prepared by making dilutions from a starting 10 mM stock solution in dimethylsulfoxide (DMSO) (Sigma, #D8418). The final DMSO concentration in the test is 1%. The reaction is carried out at 25° C. for 1 hour and detected on the EnVision® reader (Perkin Elmer) according to the recommendations of the supplier, Life Technologies.
The results are presented (Table 1) as the concentration values of the compound at which 50% of the kinase activity is inhibited, IC50 (μM), generated using the PRISM software (GraphPad).
In general terms: Time-resolved FRET reads energy transfer from a long-lived donor to a nearby acceptor.

`CN1CCN(c2ccc3cc2OCCOCCOc2ccc4c(c2)-c2nc(ncc2CC4)N3)CC1` [Compound 3]: the figures for the EC50 in assay [1] and in assay [2] were 5.6 nM and 2.8 nM, respectively. Moreover, the concentration for half-maximal inhibition (IC50) in assay [3] amounted to 54 nM.

Regarding `c1cc(N2CCNCC2)c2cc1Nc1ncc3c(n1)-c1cc(ccc1CC3)OCCOCCO2` [Compound 5], the EC50 was 1.8 nM in assay [1] and 7.2 nM in assay [2]. Also, the IC50 in assay [3] came to 30 nM.

On to `c1cc(N2CCC(N3CCOCC3)C2)c2cc1Nc1ncc3c(n1)-c1cc(ccc1CC3)OCCOCCO2` (stereo not drawn) [Compound 7], for which the EC50 in assay [1] stood at 34 nM; in assay [2], 40 nM. Moreover, in assay [3], the 50% inhibitory concentration (IC50) worked out at 120 nM.

`c1cc(N2CCC(N3CCCCC3)CC2)c2cc1Nc1ncc3c(n1)-c1cc(ccc1CC3)OCCOCCO2` [Compound 10]: the EC50 in assay [1] amounted to 6 nM; in assay [2], 6.5 nM. For the same molecule, in assay [3], the IC50 worked out at 60 nM.

Turning to `c1cc(OCCN2CCCC2)c2cc1Nc1ncc3c(n1)-c1cc(ccc1CC3)OCCOCCO2` [Compound 14], the figures for the concentration giving a half-maximal response (EC50) in assay [1] and in assay [2] were 4.5 nM and 9.2 nM, respectively. In assay [3], the IC50 was determined as 70 nM.

For `OC1CCN(c2ccc3cc2OCCOCCOc2ccc4c(c2)-c2nc(ncc2CC4)N3)CC1` [Compound 19], the concentration giving a half-maximal response (EC50) in assay [1] is 13.4 nM; in assay [2], 12 nM. The IC50 in assay [3] worked out at 30 nM.

In the case of `CN1CC=C(c2ccc3cc2OCCOCCOc2ccc4c(c2)-c2nc(ncc2CC4)N3)CC1` [Compound 23], the EC50 came to 6.6 nM in assay [1] and 20 nM in assay [2]. In addition, in assay [3], the half-inhibitory concentration (IC50) came to 110 nM.

Take `c1cc(N2CC3CNCC3C2)c2cc1Nc1ncc3c(n1)-c1cc(ccc1CC3)OCCOCCO2` (stereo not drawn) [Compound 29]: the figures for the EC50 in assay [1] and in assay [2] were 15 nM and 7.6 nM, respectively. Also, the IC50 in assay [3] is 18 nM.

Turning to `CN(C)C1CCN(c2ccc3cc2OCCOCCOc2ccc4c(c2)-c2nc(ncc2CC4)N3)C1` (stereo not drawn) [Compound 30], the EC50 in assay [1] amounted to 15 nM; in assay [2], 12 nM. In assay [3], the IC50 was determined as 18 nM.

`CN1CCN(c2ccc3cc2OCCOCCOc2ccc4c(c2)-c2nc(ncc2CC4)N3)CC1(C)C` [Compound 40]: the EC50 is 20 nM in assay [1] and 21 nM in assay [2]. Also, the IC50 in assay [3] was 17.6 nM.

In the case of `c1cc(N2CC3CCC(C2)N3)c2cc1Nc1ncc3c(n1)-c1cc(ccc1CC3)OCCOCCO2` [Compound 42], the concentration for a half-maximal effect (EC50) in assay [1] stood at 7 nM; in assay [2], 3 nM. In assay [3], the 50% inhibitory concentration (IC50) is 13 nM.

As for `c1cc(N2C[C@H]3C[C@@H]2CN3)c2cc1Nc1ncc3c(n1)-c1cc(ccc1CC3)OCCOCCO2` [Compound 44], the EC50 was determined as 8.8 nM in assay [1] and 10 nM in assay [2]. In addition, in assay [3], the IC50 turned out to be 35 nM.
